Measured values taken from PubChem BioAssay (NCI).
“And” between values parts separate entries of the source, which are not always exact repeats. Equal entries are not always repeated.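 Interpolation was linear, between the two tested concentrations surrounding the appropriate level; five concentrations were tested over 48 hours in 96-well plates. TGI: total growth inhibition.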

How the values were obtained:
Experiment in all cases: inhibition of tumour cell growth, NCI panel, 48 h
BT-549 breast = test system: BT-549 breast
COLO 205 colon = test system: COLO 205 colon
LOX IMVI melanoma = test system: LOX IMVI melanoma
OVCAR-4 ovarian = test system: OVCAR-4 ovarian
OVCAR-5 ovarian = test system: OVCAR-5 ovarian
SF-268 CNS = test system: SF-268 CNS
SNB-75 CNS = test system: SNB-75 CNS
U251 CNS = test system: U251 CNS
UACC-257 melanoma = test system: UACC-257 melanoma
UACC-62 melanoma = test system: UACC-62 melanoma

SMILES | TGI (BT-549 breast) | TGI (COLO 205 colon) [µM] | TGI (LOX IMVI melanoma) | TGI (OVCAR-4 ovarian) | TGI (OVCAR-5 ovarian) [µM] | TGI (SF-268 CNS) [µM] | TGI (SNB-75 CNS) [µM] | TGI (U251 CNS) | TGI (UACC-257 melanoma) [µM] | TGI (UACC-62 melanoma)
COC(=O)C1(c2cc3ccccc3n2S(=O)(=O)c2ccccc2)CC2C=CC1NC2 (stereo not given) | 6.48 µM | 4.61 | 3.73 µM | 6.07 µM | 6.37 | > 20.2 | 17.9 | 2.75 µM | 4.93 | 3.31 µM
CC(C)(C)c1cc(C2NCCO2)cc(C(C)(C)C)c1O (stereo not given) | > 100 µM | > 100 | > 100 µM | > 100 µM | > 100 | > 100 | 30.6 | > 100 µM | > 100 | > 100 µM
N#Cc1c(Cl)cccc1Oc1ccc(S(=O)(=O)/N=C(\NN)Nc2ccc(Cl)cc2)cc1 | 67.8 µM | 29.6 | 31.4 µM | 71 µM | 94.5 | 48.9 | 54.7 | > 100 µM | 72.3 | 38.8 µM
COc1cc(/C=C2\C[C@H]3[C@@H]4CC=C5C=C(N6CCCC6)CC[C@]5(C)[C@H]4CC[C@]3(C)C2=O)cc(OC)c1OC | 5.82 µM | 10.7 | 2.87 µM | 22.5 µM | 30.8 | 5.05 | 15.9 | 4.7 µM | 9.48 | 5.46 µM
CC(=O)OCC(OC(C)=O)C(OC(C)=O)C(OC(C)=O)C(C=NN(C(C)=O)S(=O)(=O)c1ccc(/C=C2\NC(=O)N(C)C2=O)cc1)OC(C)=O (stereo not given) | 49.4 µM and > 100 µM | > 100 | 33 µM and 66 µM | 95.7 µM and > 100 µM | > 100 | > 100 | > 100 | 66 µM and > 100 µM | > 100 | 23.3 µM and 29.5 µM
CCOP(=O)(CCCC(O)CNc1cc(Cl)nc(N)n1)OCC (stereo not given) | > 100 µM | > 100 | > 100 µM | > 100 µM | > 100 | > 100 | > 100 | > 100 µM | > 100 | > 100 µM
CC(C)(C)OC(=O)c1cnc(Cl)cn1 | > 100 µM | > 100 | 62.9 µM | 91.9 µM | > 100 | > 100 | > 100 | > 100 µM | > 100 | > 100 µM
COc1ccc(-c2c(=O)[nH]n3c(=S)nc(-c4ccccc4)[nH]c23)cc1OC | 37.6 µM | 31.3 | 37 µM | 61.1 µM | 47.3 | > 100 | 54 | 58.5 µM | 61.1 | 39.8 µM
N#CCCCC[N+]12CN3CN(CN(C3)C1)C2 | > 100 µM | > 100 | > 100 µM | > 100 µM | > 100 | > 100 | > 100 | > 100 µM | > 100 | > 100 µM
COC(=O)c1ccccc1C1CN=NC12Cc1ccc(C)c(C)c1C2=O (stereo not given) | > 100 µM | > 100 | > 100 µM | > 100 µM | > 100 | > 100 | > 100 | > 100 µM | > 100 | > 100 µM
CCN1CCN(c2ccc(Nc3ccnc4ccc5c(nnn5C)c34)cc2)CC1 | 36.3 µM | 15.4 | 13.1 µM | 48.2 µM | 24.2 | 23.1 | 30.5 | 19 µM | 26.1 | 27.1 µM
CC(C)=CCNc1ncnc2nc[nH]c12 | > 100 µM | > 100 | > 100 µM | > 100 µM | > 100 | > 100 | > 100 | > 100 µM | > 100 | > 100 µM
Cc1c(C)c2c(c(N)c1C#N)C(=O)N(Nc1ccccc1)C2=O | > 100 µM | > 100 | > 100 µM | > 100 µM | > 100 | > 100 | > 100 | > 100 µM | > 100 | > 100 µM
Cc1ccc(NC(=O)CSc2nc(C)nc3c2sc(=S)n3-c2ccccc2)cc1 | 9.55 µM | > 10 | > 10 µM | 6.06 µM | > 10 | > 10 | 4.84 | > 10 µM | > 10 | > 10 µM
Nc1nc(N)c(NC(=O)CCCO)c(=O)[nH]1 | > 100 µM | > 100 | > 100 µM | > 100 µM | > 100 | > 100 | > 100 | > 100 µM | > 100 | > 100 µM
COc1ccc(/C=C/C(=O)/C=C/c2ccc(OC)cc2)cc1 | > 100 µM | 95.4 | > 100 µM | > 100 µM | > 100 | > 100 | > 100 | 68.6 µM | 41.3 | > 100 µM
N#Cc1c(O)c(N=Nc2ccccc2F)c(=O)n2c1[nH]c1ccccc12 | > 100 µM | > 100 | > 100 µM | > 100 µM | > 100 | > 100 | > 100 | > 100 µM | > 100 | > 100 µM
